Patent US10709783B2, “Neutron capture therapy system for eliminating amyloid β-protein” (NEUBORON MEDTECH LTD., priority 2015, dated 2020)
Read-outs that look alike come from different tables or passages of the source.

Legend:
[1] = test system: amyloid β-protein deposition plaques; experiment: Micro-PET scan of brain uptake of ^11C-labelled compound in SAMP8 model mice and control mice; format: in vivo
Procedure: (§1) SAMP8 (senescence accelerated mouse prone 8) mice are the most common animal model of AD (Alzheimer's disease), in its brain there are a large number of amyloid deposition plaque. In this example, SAMP8 mice were used as model mice, and the normal mice were used as the control mice. Both the model mice and the control mice were 10 months old. The two mice were injected with 6-borono-2-(4-methylaminophenyl)benzothiazole containing ^11C labeling, and the Micro-PET scan is used to study whether 6-borono-2-(4-methylaminophenyl)benzothiazole and amyloid β-protein have specific binding properties. Model mice and control mice weighing 31.5±0.3 g were selected, 31.0±0.6 μCi of ^11C labelled 6-borono-2-(4-methylaminophenyl)benzothiazole were injected thereto, and Micro-PET of Model INVEON from Siemens were used for scan, where the scanning window was 350-650 KeV.
(§2) It is well known to those skilled in the art that the major cause of Alzheimer's disease is that the amyloid β-protein deposition plaques accumulate in the cerebral cortex and hippocampus of the brain. In this example, Micro-PET scanned and compared the brains of the model and control mice using PMOD software. And the absorption of radioactive 6-borono-2-(4-methylaminophenyl)benzothiazole in the cerebral cortex and hippocampus of SAMP8 model mice and control mice was determined, to further illustrate that the compound is capable of specifically binding to amyloid β-protein deposition plaques.

[2] = as above; format: in vivo; conditions: mouse, 31 μCi; for tissue uptake at 5 min: 5 min after injection; for tissue uptake at 15 min: 15 min after injection; for tissue uptake at 25 min: 25 min after injection; for tissue uptake at 35 min: 35 min after injection
Procedure: as §1, §2

[3] = cerebral cortex, other: injected (kind of injection not stated), SAMP8 model mice, read-out: Cerebral cortex uptake of radiopharmaceuticals, Model mice
[4] = cerebral cortex, other: injected (kind of injection not stated), normal control mice, read-out: Cerebral cortex uptake of radiopharmaceuticals, Control mice
[5] = hippocampus, other: injection (kind of injection not stated), SAMP8 model mice, read-out: hippocampus uptake of radiopharmaceuticals, Model mice
[6] = hippocampus, other: injection (kind of injection not stated), normal control mice, read-out: hippocampus uptake of radiopharmaceuticals, Control mice

## CNc1ccc(-c2nc3ccc(B(O)O)cc3s2)cc1 [6-borono-2-(4-methylaminophenyl)benzothiazole]
[1]; 5 min after injection
  Cerebral cortex uptake Ratio (model mice/control mice): 1.9
  hippocampus uptake Ratio (model mice/control mice): 1.9
[1]; 15 min after injection
  Cerebral cortex uptake Ratio (model mice/control mice): 1.9
  hippocampus uptake Ratio (model mice/control mice): 2.3
[1]; 25 min after injection
  Cerebral cortex uptake Ratio (model mice/control mice): 2.4
  hippocampus uptake Ratio (model mice/control mice): 3.2
[1]; 30 min after injection
  brain radiopharmaceutical absorption in PET image (FIG. 4), SAMP8 model mouse relative to control mice: accumulated a large amount of radiopharmaceuticals
[1]; 35 min after injection
  Cerebral cortex uptake Ratio (model mice/control mice): 2.7
  hippocampus uptake Ratio (model mice/control mice): 3.2
[2]; [3]
  tissue uptake at 5 min: 3.03 %ID/g
  tissue uptake at 15 min: 2.88 %ID/g
  tissue uptake at 25 min: 2.79 %ID/g
  tissue uptake at 35 min: 2.68 %ID/g
[2]; [4]
  tissue uptake at 5 min: 1.61 %ID/g
  tissue uptake at 15 min: 1.48 %ID/g
  tissue uptake at 25 min: 1.17 %ID/g
  tissue uptake at 35 min: 0.99 %ID/g
[2]; [5]
  tissue uptake at 5 min: 3.44 %ID/g
  tissue uptake at 15 min: 3.5 %ID/g
  tissue uptake at 25 min: 3.45 %ID/g
  tissue uptake at 35 min: 3.27 %ID/g
[2]; [6]
  tissue uptake at 5 min: 1.8 %ID/g
  tissue uptake at 15 min: 1.49 %ID/g
  tissue uptake at 25 min: 1.09 %ID/g
  tissue uptake at 35 min: 1.01 %ID/g
